Reference: patent publication US11434227B2, “Broad spectrum antibacterial activity of novel bisbenzimidazoles targeting topoisomerase IA and the synergistic composition of bisbenzimidazole with efflux pump inhibitors against pathogenic bacteria” (Jawaharlal Nehru University (JNU), priority 2016, dated 2022)
Values after ≈ are worked out from the molar mass of the structure shown.

Legend:
E. coli ATCC 25922 [1] = experiment: Mouse systemic infection (septicemia) model; type: in vivo, Balb/c mice
Experimental: Female Balb/c mice weighing 20-25 g of 6-8 weeks old were injected with E. coli ATCC 25922 (0.5×10^8 CFU in 0.1 mL saline) intraperitoneally. […] Each treatment or control group had 10 mice. Mortality was recorded daily for 7 days post infection.

E. coli 118^R = experiment: Susceptibility (MIC, PAE, MBC), broth microdilution; settings: Escherichia coli
A. baumannii (AB387) = experiment: HN12b in combination with efflux pump inhibitors (CB method, FICI); settings: for FICI / Interpretation: A. baumannii (AB387)
Experimental: (§1) 96-well microtiter plates containing MIC25 concentrations of the Efflux pump inhibitor (CCCP, PAβN) and HN12b antimicrobial drugs alone and in CB combination were used. The MICs of the individual drugs HN12b, PAβN and CCCP (0.25 to 128 μg/ml) and of the combinations were determined using the broth microdilution technique as recommended by the CLSI. Briefly, the broth microdilution plates were inoculated with each test organism to yield the appropriate density (10^5 CFU/ml) in 100 μl Mueller-Hinton broth (MHB) and incubated for 24 h at 37° C. in ambient air. One well with no antibiotic was used as a positive growth control on each plate. Plates were read for visual turbidity, and results were recorded after 24 h of incubation at 37° C. in ambient air by using a magnifying mirror reader, as turbidity in wells indicated growth of the microorganism. The MIC was determined as the well in the microtiter plate with the lowest drug concentration at which there was no visible growth. […] MICAB was defined as the MIC of drug A in the presence of drug B; MICBA was defined as the MIC of drug B in the presence of drug A.
(§2) The fractional inhibitory concentration index (FICI) was calculated for each antibiotic in each combination by using the following formula: FICA+FICB=FICI, where FICA equals the MIC of drug A in combination divided by the MIC of drug A alone and FICB equals the MIC of drug B in combination divided by the MIC of drug B alone. The FICIs were interpreted as follows: FICI of ≤0.5 will correspond to synergy; FICI of >0.5 to ≤1 will correspond to additivity; FICI of >1 to ≤4 will correspond to no interaction (indifference), and FICI of >4 will correspond antagonism.

E. coli 451^R = experiment: Susceptibility (MIC, PAE, MBC), broth microdilution; settings: Escherichia coli
Experimental: (§3) MICs were determined by the broth microdilution method according to CLSI methods (Clinical and Laboratory Standards Institute, 2005). Inoculants were incubated at 37° C. on cation adjusted Mueller Hinton (MH) Broth for 18 to 24 h. Compound were dissolved in media to 10 doubling dilutions from 128 to 0.125 μg/mL. All the bacterial strains were grown in 96 well plate with low evaporation lid (Falcon, Becton Dickinson) in presence of derivatives of benzimidazoles at 0.125, 0.25, 0.5, 1, 2, 4, 8, 16, 32, 64, 128, 256 μg/mL concentrations. […] Plates were read by Tecan Micro-plate Reader at 600 nm.

[2] = tested on: Klebsiella planticola (MTCC 2272); experiment: Susceptibility (MIC50/MIC90), broth microdilution; settings: MTCC2272
Experimental: as §3

E. coli K12 = experiment: Susceptibility of E. coli K12 and mutants (MIC90); settings: Escherichia coli
Experimental: as §3

Escherichia coli 392 = experiment: Susceptibility (MIC50/MIC90), broth microdilution
Experimental: as §3

[3] = tested on: efflux and porin genes (acrAB-tolC, emrAB-tolC, ompC, ompF) in E. coli K12 cells; experiment: Gene expression analysis by real-time qPCR; type: cell-based, Escherichia coli; settings: E. coli K12 cells treated with ¼ MIC
[4] = tested on: E. coli K12 mutant ΔTopIA; experiment: Susceptibility of E. coli K12 and mutants (MIC90); settings: Escherichia coli
Experimental: as §3

Enterococcus sp.(1150) = experiment: Susceptibility (MIC50/MIC90), broth microdilution
Experimental: as §3

E. coli K12 mutant ΔompC = experiment: Susceptibility of E. coli K12 and mutants (MIC90); settings: Escherichia coli
Experimental: as §3

[5] = tested on: Acinetobacter baumannii (AB387); experiment: Susceptibility (MIC50/MIC90), broth microdilution
Experimental: as §3

[6] = Synergistic effect of CCCP and HN12b in neutropenic thigh infection model; type: in vivo, Balb/c mice; settings: HN12b 3 mg/kg bw + CCCP 3 mg/kg bw
Staphylococcus sp. (982) = experiment: Susceptibility (MIC50/MIC90), broth microdilution
Experimental: as §3

K. planticola (1164) = experiment: HN12b in combination with efflux pump inhibitors (CB method, FICI)
Experimental: as §1, §2

[7] = tested on: Pseudomonas aeruginosa (Ps162); experiment: Susceptibility (MIC50/MIC90), broth microdilution
Experimental: as §3

Staphylococcus sp. (976) = experiment: Susceptibility (MIC50/MIC90), broth microdilution
Experimental: as §3

[8] = tested on: Acinetobacter baumannii (MTCC1920); experiment: Susceptibility (MIC50/MIC90), broth microdilution
Experimental: as §3

E. coli 59^R = experiment: Susceptibility (MIC, PAE, MBC), broth microdilution; settings: Escherichia coli
Experimental: as §3

E. coli 151^R = experiment: as above; settings: Escherichia coli
Experimental: as §3

Enterococcus sp. (1367) = experiment: Susceptibility (MIC50/MIC90), broth microdilution
Experimental: as §3

[9] = tested on: Pseudomonas aeruginosa (MTCC1688); experiment: Susceptibility (MIC50/MIC90), broth microdilution
Experimental: as §3

E. coli ATCC 25922 [10] = experiment: Neutropenic thigh infection model
Experimental: The neutropenic mice thigh infection model, fully described by. Craig, was used in this study. Female Balb/c mice (6 mice per dosing group) weighing 20-25 g were rendered neutropenic with 2 intraperitoneal injections of cyclophosphamide (150 mg/kg of body weight 4 days prior to bacterial inoculation and 100 mg/kg 1 day before inoculation) 2 h prior to bacterial inoculation. […] Bacteria were injected into the right thigh of each mouse at time zero. […] Neutropenia was defined as an absolute neutrophil count of 500 polymorphonuclear leukocytes/cm^3 of blood. The bacterial suspension was diluted to a concentration of 10^6 CFU/mL with normal saline. Then, 0.1 mL of the bacterial suspension was injected into each posterior thigh muscle 2 h after the second dose of cyclophosphamide was administered. […] Twenty-four hours after drug treatment was begun, the mice were humanely sacrificed. Right thigh muscles from each mouse were aseptically collected, homogenized and serially diluted 1:10 in phosphate buffer saline, and processed for quantitative cultures.

[11] = tested on: Staphylococcus sp. (1016); experiment: Susceptibility (MIC50/MIC90), broth microdilution; settings: Staphylococcus
Experimental: as §3

Enterococcus sp. (2105) = experiment: Susceptibility (MIC50/MIC90), broth microdilution
Experimental: as §3

[12] = tested on: Escherichia coli (ATCC 25922); experiment: Susceptibility (MIC, PAE, MBC), broth microdilution; settings: Escherichia coli
Experimental: as §3

[13] = tested on: Klebsiella planticola (K589); experiment: Susceptibility (MIC50/MIC90), broth microdilution
Experimental: as §3

[14] = K. planticola (1164), HN12b + CCCP
[15] = ATCC25922, Escherichia coli (ATCC 25922), Table 2

CCCN1CCN(c2nc3ccc(-c4nc5ccccc5[nH]4)cc3[nH]2)CC1 [HN12b, 2′-(4-propylpiperazine-1-yl)-1H, 3′H-2,5′-bibenzimidazole]
ED50 (E. coli ATCC 25922 [1]; Escherichia coli, iv, 168 h, Septicemia, ATCC25922, single i.v. bolus, survival over 7 days): 5 mg/kg
in vivo efficacy (E. coli ATCC 25922 [1]; Septicaemia model, E. coli ATCC 25922): good in vivo efficacy
MBC (E. coli 118^R): 2 µg/mL (≈ 5.55 µM)
MIC50 (E. coli 118^R): 1 µg/mL (≈ 2.77 µM)
MIC90 (E. coli 118^R): 1.7 µg/mL (≈ 4.72 µM)
FICI (A. baumannii (AB387); HN12b + CCCP): 0.2
Interpretation (A. baumannii (AB387); HN12b + CCCP): Synergy (FICI of ≤0.5 will correspond to synergy)
FICI (A. baumannii (AB387); HN12b + PAβN): 0.2
Interpretation (A. baumannii (AB387); HN12b + PAβN): Synergy (FICI of ≤0.5 will correspond to synergy)
MIC90 (A. baumannii (AB387); Acinetobacter baumannii): 8 µg/mL
MBC (E. coli 451^R): 2 µg/mL (≈ 5.55 µM)
MIC50 (E. coli 451^R): 1 µg/mL (≈ 2.77 µM)
MIC90 (E. coli 451^R): 1.7 µg/mL (≈ 4.72 µM)
MIC50 [2]: 30 µg/mL (≈ 83.3 µM)
MIC90 [2]: 128 µg/mL (≈ 355 µM)
MIC90 (E. coli K12): 8 µg/mL (≈ 22.2 µM)
MIC50 (Escherichia coli 392): 17.9 µg/mL (≈ 49.7 µM)
MIC90 (Escherichia coli 392): 64.5 µg/mL (≈ 179 µM)
gene expression of efflux pumps and porins [3]: acrAB-tolC and emr AB-tolC activation and ompC and ompF down-regulation
MIC90 [4]: 2.8 µg/mL (≈ 7.77 µM)
MIC50 (Enterococcus sp.(1150)): 0.25 µg/mL (≈ 0.694 µM)
MIC90 (Enterococcus sp.(1150)): 13.2 µg/mL (≈ 36.8 µM)
MIC90 (E. coli K12 mutant ΔompC): 3.8 µg/mL (≈ 10.5 µM)
MIC50 [5]: 3.25 µg/mL (≈ 9.02 µM)
MIC90 [5]: 8 µg/mL (≈ 22.2 µM)
in vivo efficacy in combination with CCCP [6]: further improves
MIC50 (Staphylococcus sp. (982)): 0.44 µg/mL (≈ 1.22 µM)
MIC90 (Staphylococcus sp. (982)): 7.44 µg/mL (≈ 20.6 µM)
FICI (K. planticola (1164); [14]): 0.5
Interpretation (K. planticola (1164); [14]): Synergy (FICI of ≤0.5 will correspond to synergy)
FICI (K. planticola (1164); K. planticola (1164), HN12b + PAβN): 1
MIC90 (K. planticola (1164); Klebsiella planticola): 128 µg/mL
MIC50 [7]: 2.94 µg/mL (≈ 8.16 µM)
MIC90 [7]: 5.94 µg/mL (≈ 16.5 µM)
MIC50 (Staphylococcus sp. (976)): 0.31 µg/mL (≈ 0.86 µM)
MIC90 (Staphylococcus sp. (976)): 15.3 µg/mL (≈ 42.5 µM)
MIC50 [8]: > 128 µg/mL
MIC90 [8]: 128 µg/mL (≈ 355 µM)
MBC (E. coli 59^R): 4 µg/mL (≈ 11.1 µM)
MIC50 (E. coli 59^R): 2 µg/mL (≈ 5.55 µM)
MIC90 (E. coli 59^R): 3.4 µg/mL (≈ 9.43 µM)
MBC (E. coli 151^R): 2 µg/mL (≈ 5.55 µM)
MIC50 (E. coli 151^R): 1 µg/mL (≈ 2.77 µM)
MIC90 (E. coli 151^R): 1.7 µg/mL (≈ 4.72 µM)
MIC50 (Enterococcus sp. (1367)): < 0.25 µg/mL
MIC90 (Enterococcus sp. (1367)): 11.4 µg/mL (≈ 31.5 µM)
MIC50 [9]: > 128 µg/mL
MIC90 [9]: 128 µg/mL (≈ 355 µM)
in vivo efficacy (E. coli ATCC 25922 [10]; Neutropenia thigh model, E. coli ATCC 25922): good in vivo efficacy
Dose at 1 log reduction (E. coli ATCC 25922 [10]; Neutropenic Thigh, ATCC25922): 3 mg/kg/bw/day
Dose at 3 log reduction (E. coli ATCC 25922 [10]; Neutropenic Thigh, ATCC25922): 5 mg/kg/bw/day
MIC50 [11]: 0.57 µg/mL (≈ 1.58 µM)
MIC90 [11]: 4.57 µg/mL (≈ 12.7 µM)
MIC50 (Enterococcus sp. (2105)): 28.4 µg/mL (≈ 78.8 µM)
MIC90 (Enterococcus sp. (2105)): 128 µg/mL (≈ 355 µM)
MBC ([12]; ATCC25922): 4 µg/mL (≈ 11.1 µM)
MIC50 ([12]; ATCC25922, ATCC 25922): 0.2 µg/mL (≈ 0.555 µM)
MIC90 ([12]; ATCC25922, ATCC 25922): 3.3 µg/mL (≈ 9.15 µM)
MIC50 ([12]; ATCC25922, ATCC25922, Table 7): 0.2 ± 0.024 µg/mL (≈ 0.555 µM)
MIC50 [12, 15]: 8 µg/mL (≈ 22.2 µM)
MIC90 [12, 15]: 26.6 µg/mL (≈ 73.8 µM)
MIC50 [13]: 7.4 µg/mL (≈ 20.5 µM)
MIC90 [13]: 97.4 µg/mL (≈ 270 µM)
